One data set deals with DT40, chicken B lymphoma. Description: DNA flow cytometry of cell cycle arrest, DT40. As to conditions: 100 μM, 48 hour. In kind it is cell-based. The method, then:
Exponentially growing tumor cells were cultured at 1×10^6 cells/ml in clonogenic medium (RPMI 1640 medium +1% penicillin/streptomycin +10% heat-inactivated fetal bovine serum, 2 mML-glutamine, and 10 mM Hepes buffer) in the presence or absence of 100 μM compound 003 for 48 hour at 37° C., 5% CO2. At 48 h, cells were washed two times in fresh clonogenic medium, trypsinized, fixed in ice cold ethanol and labeled with propidium iodide to quantify their DNA content, as described previously (See, for example, Navara, et al., 2001, Anticancer Drugs. 12:369). Quantitative DNA analysis was performed on a Becton Dickenson Calibur flow cytometer equipped with a Consort 40 computer using the COTFIT program, which includes CELLCY, a cell cycle distribution function that fits DNA content histograms and calculates-the percentages of cells in G, S, and GM phases of the cell cycle, as described, for example, in Uckun et al., 1996, J Biol Chem. 271, 6389.
(In flow cytometry, cells or beads pass a laser one at a time.)

Data set [1] deals with BT20 breast cancer cell line. The data set is described as follows: Intracellular metabolism of Compound 003 to ala-AZT-MP, BT20. As to conditions: 25 μM Compound 003. The class given is in vitro ADME, human. The source says:
Intracellular metabolism of Compound 003 was studied in CEM T-lineage lymphoma cell line, BT20 breast cancer cell line, T98 glioblastoma cell line, and Nalm-6 B-lineage leukemia cell line. CEM and Nalm6 cells were maintained in RPMI supplemented with 10% fetal bovine serum, and 1% penicillin/streptomycin. BT20 and T98 cells w.ere cultured in a medium composed of MEM, 10% fetal bovine serum, 0.1-mM of nonessential amino acids and Earles salts, and 1% penicillin/streptomycin. CEM and Nalm6 cells at a density of 10^6 cells per ml were utilized in the drug metabolism study. BT20 and T98 cells were seeded in 6-cm petri-dishes at 4 million cells and 2 million cells per plate, respectively, the day before the experiment. Either one plate of adherent cells or 10 million non-adherent cells was utilized at each time point. Cells were incubated with various concentrations of the compounds up to 24 hrs at 37° C. After incubation, cells were washed 2 times with ice-cold PBS, and extracted by addition of 0.5-1 ml of 60% methanol. Cell lysates were kept at −20° C. overnight, after which lysates were centrifuged at 15000×g for 10 minutes to remove the cell debris. One hundred microliters of these lysates were injected directly to HPLC. For half-life study, cells at the same density as in drug metabolism study were treated with 100 μM Compound 003 for 2 hrs, after which cells were washed 2 times with ice-cold PBS, and resuspended in warm media until the time they were harvested. For uptake and efflux study, cells were seeded at 2 million cells in 2 ml of media. […] With efflux experiments, cells 1×10^6/mL (the same density as in the uptake study) were incubated with 100 μM Compound 003 for 1 hr, washed 2 times with ice-cold PBS, and resuspended with culture medium without drug, and the metabolite efflux from cells to the medium was measured after 6 hr of incubation. […]

The test system of data set [2] is Microsomal or cytosolic fractions of BT20 cells. The data set is described as follows: Enzyme kinetics of Compound 003 metabolism in subcellular fractions, BT20. In kind it is in vitro ADME, human. How it is done: 1−3×10^8 Nalm6 and BT20 cells were washed with PBS, resuspended in homogenizing buffer containing 10 mM Tris-HCl (pH 7.4) and 250 mM sucrose. Cells were sonicated and spun at 10,000×g, and the resulting supernatant was centrifuged again at 100,000×g to isolate microsomal and cytosolic fractions. The microsomal pellet was resuspended in a buffer containing 10 mM Tris-HCl (pH 7.4), 250 mM sucrose, 1 mM EDTA, and 20% glycerol. Microsomes or cytosols of Nalm6 (80 μg. and 86 μg, respectively) and BT20 cells (59 μg and 160 μg, respectively) were preincubated with or without 1 mM paraoxon in Tris-HCl buffer (pH 7.4) in a total volume of 250 μl for 10 minutes; 1. mM COMPOUND 003 was then added to the incubation mixture, and the reactions were allowed to proceed for another 30 minutes and terminated by addition of 125 μl of acetone. Protein precipitation was then removed by centrifugation; 100 μl of the supernatant was injected directly into the HPLC.
2.2.9 Enzyme Kinetics of Compound 003 Metabolism Microsomal or cytosolic fractions of Nalm6 and BT20 cells were incubated with COMPOUND 003 at various concentrations from 10 μM to 1.2 mM in similar reaction conditions as described above, except without the inhibitor. The reactions were allowed to proceed for 40 minutes. Km and Vmax in the Michaelis-Menten model were estimated by WinNonlin program (Scientific Consulting, Inc.)

A further data set is described as follows: Stability in plasma. The class given is in vitro ADME. The method, then:
Plasma samples, simulated gastric fluid and intestinal fluids (United State Pharmacopeia XXII methods) were separately spiked with COMPOUND 003 to yield final concentrations of 500 μM. Spiked samples were incubated at 37° C. At a predetermined time (5, 10, 15, 30 60 and 120 minutes), an aliquot (200 μl) of the spiked plasma sample was extracted as described above.

Regarding `COC(=O)C(C)NP(=O)(OCC1OC(n2cc(C)c(=O)[nH]c2=O)CC1N=[N+]=[N-])Oc1ccc(OC)cc1` (stereo not drawn) [Compound 003, 3′-azidothymidine 5′-[p-methoxyphenylmethoxyalaninyl phosphate]], the cell cycle arrest result in the data set with DT40, chicken B lymphoma was “caused G2 arrest”. Besides, in data set [1], the “time to peak intracellular metabolite concentration” value is “within an hour”. Also, in data set [2] (cytosolic fraction), the Km (as a rule, the concentration of substrate that gives half-maximal velocity) was determined as 1750 µM and the maximum rate (Vmax) (as a rule, the rate approached at saturating substrate) was determined as 5.9 nmol/mg/min. Also, in data set [2] (microsomal fraction), the Km was 460 µM and the Vmax worked out at 0.7 nmol/mg/min. In addition, the decomposition product result in the data set “Stability in plasma” was “decomposed to mainly form ala-AZT-MP”. For the same compound, the stability result in “Stability in plasma” (500 μM, 37° C.) is on record as “unstable in plasma”. In addition, the “share of Compound 003 decomposed” value in “Stability in plasma” (500 μM, 37° C., within 5 minutes) is reported as > 99%.

Source of the values: US20060046972A1, “Cytotoxic nucleoside analog compound 003 for treating cancer” (Parker Hughes Institute, priority 2004, published 2006).
